According to publication PMC4199632, “Exploring the Anti-Cancer Activity of Novel Thiosemicarbazones Generated through the Combination of Retro-Fragments: Dissection of Critical Structure-Activity Relationships” (PLoS ONE, 2014):

How the values were obtained:
[1] = system: normal human dermal fibroblast (NHDF) cells; experiment: Proliferation assay (MTS, 96 h), normal mortal cells; format: cell-based; details: 96 h incubation, mean ±SD (3 experiments)
In short: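 HCT116 p53+/+, HCT116 p53−/− and NHDF cells were seeded 24 h before a 96 h compound exposure at 37 °C, with final DMSO <0.05%. Viability was read by MTS absorbance at 490 nm after 1 h; IC50 was the concentration reducing absorbance to 50% of untreated control.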

[2] = system: SK-N-MC cells; experiment: Mobilization of cellular 59Fe (59Fe efflux); format: cell-based, human; details: chelator 25 µM; for 59Fe mobilization (% of cellular 59Fe released): 3 h/37°C, prelabeled SK-N-MC cells, control medium 4±1%; for 59Fe mobilization efficacy compared with controls: SK-N-MC cells
Experimental: (§1) The iron transport protein, Tf (Sigma-Aldrich), was labeled with ^59Fe (PerkinElmer Life and Analytical Sciences, Boston, MA) to form ^59Fe2-Tf using standard methods, [7]. Unbound ^59Fe was removed by passage through a Sephadex G25 column and was followed by exhaustive dialysis, [7].
To examine the ability of the novel chelators to mobilize ^59Fe from SK-N-MC cells, ^59Fe efflux experiments were performed using established techniques, [51]. The monolayer of SK-N-MC cells was prelabeled for 3 h at 37°C in MEM containing ^59Fe2-Tf (0.75 µM). Cells were then washed four times with ice-cold PBS and incubated for a further 3 h at 37°C with medium alone (the control) or medium containing the chelator (25 µM). After this incubation, the overlying medium that contained the released ^59Fe was separated from the cells using a Pasteur pipette. Radioactivity was measured in both the cells and supernatant using a γ-scintillation counter (Wallac Wizard 3, Turku, Finland). In these studies, the novel ligands were compared to the previously characterized chelators, DFO and Dp44mT, as their ability to mobilize cellular ^59Fe has been extensively examined in these cells, [12], [17], [18], [50].
Figure 6 Effect of (A) series 1, (B) series 2, (C) series 3, (D) series 4, (E) series 5 and (F) series 6 chelators, relative to the controls DFO and Dp44mT, on ^59Fe mobilization from prelabeled SK-N-MC cells. Cells were incubated for 3 h/37°C with ^59Fe-transferrin (0.75 µM), washed 4 times with ice-cold PBS and then reincubated for 3 h/37°C in the presence or absence of the chelators (25 µM). Release of ^59Fe was then assessed using a γ-scintillation counter. Results are mean ±SD (3 experiments).

[3] = system: SK-N-MC cells; experiment: Inhibition of cellular 59Fe uptake from 59Fe2-Tf; format: cell-based, human; details: chelator 25 µM; for Internalized 59Fe uptake from 59Fe2-Tf (% of the control): 59Fe2-Tf 0.75 µM, 3 h/37°C
Experimental: as §1
The ability of the chelators to prevent the cellular uptake of ^59Fe from ^59Fe2-Tf was examined using standard methods, [14], [17], [18], [50]. A monolayer of SK-N-MC cells was incubated with medium containing ^59Fe2-Tf (0.75 µM) and the chelator (25 µM) for 3 h at 37°C. The medium was then removed and the cells were washed four times with ice-cold PBS. The cells were then incubated for 30 min at 4°C with the general protease, Pronase (1 mg/mL; Sigma-Aldrich), to remove membrane-bound ^59Fe. The cells were removed using a plastic spatula and centrifuged at 14,000 rpm/1 min to separate internalized from membrane-bound ^59Fe. The cell pellet was resuspended in 1 mL of PBS and the internalized ^59Fe was measured on a γ-scintillation counter. Internalized ^59Fe uptake was calculated as a percentage of the control (medium alone). Again, the novel ligands were compared to DFO and Dp44mT as their ability to inhibit cellular ^59Fe uptake has been extensively characterized using SK-N-MC cells, [14], [17], [18], [50].
Figure 8 Effect of (A) series 1, (B) series 2, (C) series 3, (D) series 4, (E) series 5 and (F) series 6 chelators, relative to the controls DFO and Dp44mT, on ^59Fe uptake from ^59Fe-transferrin by SK-N-MC cells. Cells were incubated for 3 h/37°C with ^59Fe-transferrin (0.75 µM) in the presence or absence of the chelators (25 µM). At the end of this incubation, cells were washed 4 times with ice-cold PBS. Internalization of ^59Fe was assessed by incubation for 30 min/4°C with the protease, Pronase (1 mg/mL). Cellular ^59Fe was then assessed using a γ-scintillation counter. Results are mean ±SD (3 experiments).

| Compound | IC50 ([1]; Homo sapiens, NHDF, 96 h) [µM] | 59Fe mobilization (% of cellular 59Fe released) [2] | Internalized 59Fe uptake from 59Fe2-Tf (% of the control) [3] | IC50 [1] [µM] | 59Fe mobilization efficacy compared with controls [2] | Inhibition of 59Fe uptake compared with controls [3] |
| --- | --- | --- | --- | --- | --- | --- |
| CC(=O)N(O)CCCCCNC(=O)CCC(=O)N(O)CCCCCNC(=O)CCC(=O)N(O)CCCCCN [DFO, desferrioxamine, reference compound] | > 25 | 11±2% | 83% | – | – | – |
| CN(C(=S)N/N=C/c1ccccc1O)C1CCCCC1 [6f] | > 25 | – | 3.6–11.5% | – | – | – |
| S=C(N/N=C/c1ccc2ccccc2n1)N1CCN(c2ccccc2)CC1 [2b] | – | – | – | 0.033 ± 0.007 | comparable release of ^59Fe relative to DFO | comparable inhibition of ^59Fe uptake to that of DFO |
| CN(C(=S)N/N=C/c1ccc2ccccc2n1)C1CCCCC1 [2f] | 0.015 ± 0.005 | – | – | – | comparable release of ^59Fe relative to DFO | comparable inhibition of ^59Fe uptake to that of DFO |
| S=C(NN=C(c1ccccn1)c1ccccn1)N1CCN(c2cnccn2)CC1 [1e] | 0.014 ± 0.003 | 31–39% | – | – | – | – |
| CN(C(=S)N/N=C/c1cnc2ccccc2n1)C1CCCCC1 [5f] | 0.5 ± 0.21 | – | – | – | comparable release of ^59Fe relative to DFO | comparable inhibition of ^59Fe uptake to that of DFO |
| CN(C)C(=S)NN=C(c1ccccn1)c1ccccn1 [Dp44mT, di-2-pyridylketone 4,4-dimethyl-3-thiosemicarbazone, reference compound] | 15.4 ± 5.06 | 35±2% | 6% | – | – | – |
| CCN1CCN(C(=S)N/N=C/c2ccc3ccccc3n2)CC1 [2a] | 9.62 ± 1.8 | – | – | – | comparable ^59Fe mobilization efficacy to that of the control medium | comparable ability to inhibit ^59Fe uptake to the control medium |
